Results taken from patent US20220087987A1, “A METHOD FOR TREATING SWI/SNF COMPLEX-DEFICIENT CANCERS COMPRISING GLUTATHIONE (GSH) METABOLIC PATHWAY INHIBITOR” (National Cancer Center, priority 2018, published 2022).
Structures can show the parent of a compound that is named as a salt. Where two headings read alike, the source gives them in different places.

Assays:
ARID1A-KO HCT116 cells = assay: Drug library screen, cell viability (CellTiter-Glo); format: cell-based, human; conditions: Homo sapiens, HCT-116, 120 h, read-out: Cell viability, KO
Method in brief: (§1)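 ARID1A-WT and ARID1A-KO HCT116 cells screened against the library; viability read after 5 days by CellTiter-Glo luminescence, expressed relative to DMSO-treated cells. Hits: KO viability below 40% with WT viability above 80%.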

[1] = as above; format: cell-based, human; conditions: human
Method in brief: as §1

[2] = HCT116 ARID1A-WT, 10 μM for 5 days, relative to cells treated with solvent (DMSO), read-out: Cell viability, WT
[3] = HCT116 ARID1A-KO, 10 μM for 5 days, relative to cells treated with solvent (DMSO)

Structure (SMILES) | viability at 5 days, 10 μM [1, 2] | viability at 10 µM (ARID1A-KO HCT116 cells; [3]) | further results
CO[C@@H]1C[C@@H](C[C@H]2CC[C@H](C)[C@H]([C@@H](C)C(=O)O)O2)O[C@]2(O[C@](C)([C@H]3CC[C@@](C)([C@@H]4O[C@@H]([C@H]5O[C@@](O)(CO)[C@H](C)C[C@@H]5C)C[C@@H]4C)O3)C[C@H]2C)[C@@H]1C [Nigericin] |  |  | viability at 10 µM (ARID1A-KO HCT116 cells): 4.01%; viability at 5 days, 10 μM [1]: 3.47%
COC(=O)Nc1nc2ccc(C(=O)c3cccs3)cc2[nH]1 [Nocodazole] | 6.51% |  | viability at 10 µM (ARID1A-KO HCT116 cells): 7.15%
CC(Cc1ccc(O)c(O)c1)C(C)Cc1ccc(O)c(O)c1 (stereo not drawn) [Nordihydroguaiaretic acid (NDGA), Nordihydroguaiaretic acid] | 101% | 112% | 
C[C@]1(O)C[C@@H](c2nc(-c3ccc4ccc(-c5ccccc5)nc4c3)c3c(N)nccn32)C1 [OSI-906] | 59.1% | 79.1% | 
NCC(=O)Nc1ccc(-n2nc(C(F)(F)F)cc2-c2ccc3c(ccc4ccccc43)c2)cc1 [OSU-03012] | 91.9% | 105% | 
O=C(c1cc(Cc2n[nH]c(=O)c3ccccc23)ccc1F)N1CCN(C(=O)C2CC2)CC1 [Olaparib] | 20.9% | 19.5% | 
CC[C@H]1/C=C/C=C/C[C@@H](C)[C@H](O)[C@@](C)(O)C(=O)[C@@H](C)[C@H](O)[C@@H](C)C(=O)[C@@H](C)[C@H](O)[C@@H](C)/C=C/C(=O)O[C@@H]2[C@H](C)[C@H](CC1)O[C@]1(CC[C@H](C)[C@H](C[C@@H](C)O)O1)[C@H]2C [Oligomycin] | 13.6% | 21.7% | 
Cn1cnc2c(NCc3ccccc3)nc(NCCO)nc21 [Olomoucine] | 173% |  | viability at 10 µM (ARID1A-KO HCT116 cells): 122%
C[C@@H]1O[C@@H](O[C@H]2C[C@@H](O)[C@]3(CO)[C@H]4[C@H](O)C[C@]5(C)[C@@H](C6=CC(=O)OC6)CC[C@]5(O)[C@@H]4CC[C@]3(O)C2)[C@H](O)[C@H](O)[C@H]1O [Ouabain] |  | 5.12% | viability [1, 2]: 4.81%
CC(=O)O[C@H]1C(=O)[C@@]2(C)[C@H]([C@H](OC(=O)c3ccccc3)[C@]3(O)C[C@H](OC(=O)[C@H](O)[C@@H](NC(=O)c4ccccc4)c4ccccc4)C(C)=C1C3(C)C)[C@]1(OC(C)=O)CO[C@@H]1C[C@@H]2O [Paclitaxel] | 4.91% | 6.42% | 
NNCCc1ccccc1 [Phenelzine] | 101% | 119% | 
C[C@@H]1C[C@H]2O[C@@H]2/C=C\C=C\C(=O)Cc2c(Cl)c(O)cc(O)c2C(=O)O1 [Radicicol] | 7.12% | 5.65% | 
CO[C@H]1C[C@@H]2CC[C@@H](C)[C@@](O)(O2)C(=O)C(=O)N2CCCC[C@H]2C(=O)O[C@H]([C@H](C)C[C@@H]2CC[C@@H](O)[C@H](OC)C2)CC(=O)[C@H](C)/C=C(\C)[C@@H](O)[C@@H](OC)C(=O)[C@H](C)C[C@H](C)/C=C/C=C/C=C/1C [Rapamycin] | 169% | 125% | 
C=C(C)[C@H]1Cc2c(ccc3c2O[C@@H]2COc4cc(OC)c(OC)cc4[C@@H]2C3=O)O1 [Rotenone] |  | 6.99% | viability [1, 2]: 5.52%
N#CC[C@H](C1CCCC1)n1cc(-c2ncnc3[nH]ccc23)cn1 [Ruxolitinib] | 58.1% | 86.1% | 
Oc1c2ccccc2c2c3c(cccc13)N=N2 [SP600125] | 172% | 105% | 
C[n+]1cc2c3c(ccc2c2ccc4cc5c(cc4c21)OCO5)OCO3 [Sanguinarine] |  | 2.09% | viability [1, 2]: 1.83%
O=C(CCCCCN1C(=O)c2cccc3cccc(c23)C1=O)NO [Scriptaid] | 6.95% | 5.74% | 
O=C([O-])c1ccccc1O.[Na+] [Sodium salicylate] |  |  | viability at 10 µM (ARID1A-KO HCT116 cells): 125%; viability [1]: 177%
CN[C@@H]1C[C@H]2O[C@@](C)([C@@H]1OC)n1c3ccccc3c3c4c(c5c6ccccc6n2c5c31)C(=O)NC4 [Staurosporine] |  | 4.14% | viability [1, 2]: 5.22%
CSc1ccc(/C=C2/C(C)=C(CC(=O)O)c3cc(F)ccc32)cc1 [Sulindac sulfide] | 195% | 140% | 
O[C@H]1[C@H]2[C@H](O)CCCN2C[C@H]1O [Swainsonine] |  | 110% | viability [1, 2]: 115%
CC1=C(O)C(=O)[C@@H]2O[C@@H]2C1=O [Terreic acid] |  | 90.5% | viability [1, 2]: 88.9%
C/C=C(/C)C(=O)O[C@H]1C(C)=C2[C@H]([C@@H]1OC(=O)CCCCCCC)[C@@](C)(OC(C)=O)C[C@H](OC(=O)CCC)[C@@]1(O)[C@H]2OC(=O)[C@@]1(C)O [Thapsigargin] |  |  | viability at 10 µM (ARID1A-KO HCT116 cells): 2.88%; viability at 5 days, 10 μM [1]: 2.63%
Cn1c(=O)c2[nH]cnc2n(C)c1=O [Theophylline] | 203% | 140% | 
Cc1c(C)c2c(c(C)c1O)CCC(C)(COc1ccc(CC3SC(=O)NC3=O)cc1)O2 (stereo not drawn) [Troglitazone] | 101% | 94.7% | 

Structure (SMILES) | viability at 5 days, 10 μM [1, 2] | viability at 10 µM (ARID1A-KO HCT116 cells; [3]) | further results
N#CC(=C(/N)Sc1ccccc1N)/C(C#N)=C(\N)Sc1ccccc1N [U0126] |  |  | viability at 10 µM (ARID1A-KO HCT116 cells): 68.3%; viability [1]: 80.5%
COc1cc2c(NC3CCN(C(C)C)CC3)nc(C3CCCCC3)nc2cc1OCCCN1CCCC1 [UNC0638] | 2.6% | 3.8% | 
CC(C)[C@@H]1NC(=O)[C@H](C)OC(=O)[C@@H](C(C)C)NC(=O)[C@@H](C(C)C)OC(=O)[C@H](C(C)C)NC(=O)[C@H](C)OC(=O)[C@@H](C(C)C)NC(=O)[C@@H](C(C)C)OC(=O)[C@H](C(C)C)NC(=O)[C@H](C)OC(=O)[C@@H](C(C)C)NC(=O)[C@@H](C(C)C)OC1=O [Valinomycin] |  | 4.17% | viability [1, 2]: 3.65%
COc1cc2c(Nc3ccc(Br)cc3F)ncnc2cc1OCC1CCN(C)CC1 [Vandetanib] | 14.1% | 28.9% | 
CCCS(=O)(=O)Nc1ccc(F)c(C(=O)c2c[nH]c3ncc(-c4ccc(Cl)cc4)cc23)c1F [Vemurafenib] | 103% | 108% | 
CC[C@]1(O)C[C@@H]2CN(CCc3c([nH]c4ccccc34)[C@@](C(=O)OC)(c3cc4c(cc3OC)N(C)[C@H]3[C@@](O)(C(=O)OC)[C@H](OC(C)=O)[C@]5(CC)C=CCN6CC[C@]43[C@@H]65)C2)C1 [Vinblastine sulfate] | 2.73% | 4.49% | 
CS(=O)(=O)c1ccc(C(=O)Nc2ccc(Cl)c(-c3ccccn3)c2)c(Cl)c1 [Vismodegib] | 88.7% | 109% | 
C[C@H](NC(=O)/C(C#N)=C/c1cccc(Br)n1)c1ccccc1 [WP1066] | 15.3% | 20% | 
COC[C@H]1OC(=O)c2coc3c2[C@@]1(C)C1=C(C3=O)[C@@H]2CCC(=O)[C@@]2(C)C[C@H]1OC(C)=O [Wortmannin] | 181% | 116% | 
Oc1nc(-c2ccc(C(F)(F)F)cc2)nc2c1CSCC2 [XAV939] | 87% | 111% | 
COc1cc(O)c(CC=C(C)C)c(O)c1C(=O)/C=C/c1ccc(O)cc1 [Xanthohumol] | 104% | 112% | 
C[C@@H](N)[C@H]1CC[C@H](C(=O)Nc2ccncc2)CC1 [Y27632] | 160% |  | viability at 10 µM (ARID1A-KO HCT116 cells): 98.6%
COCCn1c2c([n+](Cc3cnccn3)c1C)C(=O)c1ccccc1C2=O [YM155] | 2.67% | 3.24% | 
CCCOc1ccccc1-c1nc2nn[nH]c2c(=O)[nH]1 [Zaprinast] | 93.5% | 82.6% | 
CC(C)C[C@H](NC(=O)[C@H](Cc1ccccc1)NC(=O)c1cnccn1)B(O)O [bortezomib] | 3.06% | 5.81% | 
CN(C)CCCN1c2ccccc2Sc2ccc(Cl)cc21 [chlorpromazine hydrochloride] | 7.83% | 15.6% | 
C[C@@H](Oc1cc(-c2cnn(C3CCNCC3)c2)cnc1N)c1c(Cl)ccc(F)c1Cl [crizotinib] | 2.29% | 5.88% | 
CC1=C2C[C@H]3[C@@H](CC=C4C[C@@H](O)CC[C@@]43C)[C@@H]2CC[C@]12O[C@@H]1C[C@H](C)CN[C@H]1[C@H]2C [cyclopamine] |  | 86.7% | viability [1, 2]: 49.3%
Cc1nc(Nc2ncc(C(=O)Nc3c(C)cccc3Cl)s2)cc(N2CCN(CCO)CC2)n1 [dasatinib] | 33.5% | 37.8% | 
CNCCCN1c2ccccc2CCc2ccccc21 [desipramine hydrochloride] | 34.6% | 63.1% | 
C#Cc1cccc(Nc2ncnc3cc(OCCOC)c(OCCOC)cc23)c1 [erlotinib] | 48.1% | 48.6% | 
CO[C@H]1C[C@@H]2CC[C@@H](C)[C@@](O)(O2)C(=O)C(=O)N2CCCC[C@H]2C(=O)O[C@H]([C@H](C)C[C@@H]2CC[C@@H](OCCO)[C@H](OC)C2)CC(=O)[C@H](C)/C=C(\C)[C@@H](O)[C@@H](OC)C(=O)[C@H](C)C[C@H](C)/C=C/C=C/C=C/1C [everolimus] | 77.4% | 77.1% | 
COc1cc2ncnc(Nc3ccc(F)c(Cl)c3)c2cc1OCCCN1CCOCC1 [gefitinib] | 54.5% | 72.4% | 
Cc1ccc(NC(=O)c2ccc(CN3CCN(C)CC3)cc2)cc1Nc1nccc(-c2cccnc2)n1 [imatinib mesylate] | 37.2% | 55.4% | 
O=C1NC(=O)c2c1c1c3ccccc3[nH]c1n1cncc21 [isogranulatimide] | 118% | 151% | 
